Source: PMC11002876, “KcsA-Kv1.x chimeras with complete ligand-binding sites provide improved predictivity for screening selective Kv1.x blockers” (The Journal of Biological Chemistry, 2024)
Numbering of substitutions follows the chain as printed. Where a SMILES comes first, the peptide text is derived from it.

Columns and labels:
[1] = test system: human Kv1.2; settings: cited from earlier work; for IC50: human Kv1.2 channel blocking, patch-clamp, read-out: IC50, Kv1.x blocking (Kv1.2)
Procedure: Elution was done at 1 ml/min flow rate. Eluted peak fractions (1 ml) were analyzed by SDS-PAGE, then pooled and concentrated. The concentration of the purified protein was determined by measuring the UV absorbance at 280 nm using the protein extinction coefficient calculator in the ProtParam tool of Ex ...

[2] = target: T1, KcsA-Kv1.1 T-only chimera (Streptomyces lividans, UniProt P0A334, R52A/G53E/A54E/P55A/G56E/A57S/Q58H/L59F/I60S/T61S/Y62I/R64D); assay: Phage ELISA-binding assay, KcsA-Kv1.1 T-only; design: species or system human Kv1.1 turret in Streptomyces lividans KcsA; settings: toxin displayed on M13 phage; Fig. 8C
T1 sequence (P0A334 1-160 R52A/G53E/A54E/P55A/G56E/A57S/Q58H/L59F/I60S/T61S/Y62I/R64D): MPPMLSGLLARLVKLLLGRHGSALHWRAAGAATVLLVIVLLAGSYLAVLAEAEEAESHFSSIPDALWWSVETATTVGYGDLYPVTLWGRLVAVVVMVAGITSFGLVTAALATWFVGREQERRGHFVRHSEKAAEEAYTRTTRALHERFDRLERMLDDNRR
Procedure: (§1) Phage display test solutions were prepared according to routine phage display protocols ([62]). Phosphorylated and annealed oligonucleotides encoding the peptide construct were ligated into linearized pAS62 phagemid vector (https://patents.google.com/patent/WO2022144560A1/en) at a vector/insert ratio of 1:3. The final phagemid construct harbored a signal sequence followed by the peptide of interest, a linker sequence ([…]), and the C-terminal part of the P3 coat protein (amino acids: 216-424 of NP_510891.1). Chemically competent XL1-Blue E. coli cells (2022249, Agilent) were transformed with the ligation product and then streaked onto ampicillin (100 μg/ml) containing LB/Amp plates and incubated for 16 h at 37 °C. A few clones were sequenced, and a single colony with confirmed target sequence was inoculated into 3 ml 2 YT medium supplemented with 100 μg/ml ampicillin and incubated at 37 °C until the culture reached midlog phase. The culture was infected with M13KO7 helper phage (N0315S, New England Biolabs) (phage/cell ratio 10:1) and was incubated for 30 min at 37 °C. The 3 ml culture was transferred into 200 ml 2YT medium, supplemented with 100 μg/ml ampicillin and 25 μg/ml kanamycin, and incubated overnight at 37 °C. The overnight cell culture (200 ml) was pelleted by centrifugation at 8000g for 10 min in 400 ml centrifuge tubes at 4 °C. […] The particle concentrations of phage solutions were determined using a NanoDrop One C (Thermo Fisher Scientific) spectrophotometer. The phage particle concentration was assessed according to the formula: (A268–A320) × 5 × 10^12 particles/ml ([62]). […]
(§2) Phage stock solutions were diluted to working concentration with phage resuspension buffer supplemented with 2 mM DDM. […] Following blocking, the wells were washed 4× with washing buffer (300 μl TBS-Tween, 0.1% v/v) using a Wellwash Versa microplate washer (Thermo Fisher Scientific); then 50 μl phage solution (in TBS-BSA-Tween, 0.1% v/v, 2 mM DDM) at determined phage concentration was added to the wells and incubated for 1 h at room temperature on a horizontal shaker. […]

[3] = target: T2, KcsA-Kv1.2 T-only chimera (Streptomyces lividans, UniProt P0A334, R52A/G53D/A54E/P55R/G56E/A57S/L59F/I60P/T61S/Y62I/R64D); assay: Phage ELISA-binding assay, KcsA-Kv1.2 T-only; design: species or system human Kv1.2 turret in Streptomyces lividans KcsA; settings: toxin displayed on M13 phage, Fig. 7C
T2 sequence (P0A334 1-160 R52A/G53D/A54E/P55R/G56E/A57S/L59F/I60P/T61S/Y62I/R64D): T1 sequence (P0A334 1-160 R52A/G53E/A54E/P55A/G56E/A57S/Q58H/L59F/I60S/T61S/Y62I/R64D) with E53D, A55R, H58Q, S60P
Procedure: as §1, §2

SMILES	inhibition of Kv1.2, in words [1]	IC50 [1] [nM]	phage binding to KcsA-Kv1.1 T-only, in words [2]	phage binding to KcsA-Kv1.2 T-only, in words [3]	block of native Kv1.2, in words [1]
CC[C@H](C)[C@@H]1NC(=O)CNC(=O)[C@H](Cc2ccccc2)NC(=O)[C@H](CCC(N)=O)NC(=O)[C@H](C)NC(=O)[C@H](CCCCN)NC(=O)[C@@H]2CSSC[C@@H](C(=O)N[C@@H](Cc3ccc(O)cc3)C(=O)N3CCC[C@H]3C(=O)N[C@@H](Cc3c[nH]cn3)C(=O)O)NC(=O)[C@H](CCCCN)NC(=O)[C@@H]3CSSC[C@H](NC(=O)[C@H](CCC(N)=O)NC(=O)[C@H](CCCCN)NC(=O)[C@@H]4CCCN4C(=O)[C@H](CO)NC(=O)[C@H]([C@@H](C)O)NC(=O)[C@@H](NC(=O)[C@H](CCCCN)NC(=O)[C@@H](NC(=O)[C@H](CC(=O)O)NC(=O)[C@@H](NC(=O)[C@@H](NC(=O)[C@@H](N)[C@@H](C)O)C(C)C)[C@@H](C)CC)C(C)C)CSSC[C@H](NC(=O)[C@H](CCCCN)NC(=O)[C@H](C)NC(=O)CNC(=O)[C@H](C)NC(=O)[C@H](CCCNC(=N)N)NC1=O)C(=O)N[C@@H](CCSC)C(=O)N[C@@H](CC(N)=O)C(=O)NCC(=O)N[C@@H](CCCCN)C(=O)N3)C(=O)N[C@@H](CC(C)C)C(=O)N1CCC[C@H]1C(=O)N1CCC[C@H]1C(=O)N2 [HgTx1, Hongotoxin-1] (HELM PEPTIDE1{T.V.I.D.V.K.C.T.S.P.K.Q.C.L.P.P.C.K.A.Q.F.G.I.R.A.G.A.K.C.M.N.G.K.C.K.C.Y.P.H}$PEPTIDE1,PEPTIDE1,7:R3-29:R3|PEPTIDE1,PEPTIDE1,13:R3-34:R3|PEPTIDE1,PEPTIDE1,17:R3-36:R3$$$V2.0; N-terminus and C-terminus assumed)	equivalent high potency				
CC[C@H](C)[C@H](NC(=O)[C@H](CCC(=O)O)NC(=O)[C@@H](NC(=O)CN)C(C)C)C(=O)N[C@@H](CC(N)=O)C(=O)N[C@H](C(=O)N[C@@H](CCCCN)C(=O)N[C@H]1CSSC[C@@H]2NC(=O)[C@H](CCCCN)NC(=O)CNC(=O)[C@H](Cc3ccccc3)NC(=O)[C@H](CCCNC(=N)N)NC(=O)[C@H](CCSC)NC(=O)CNC(=O)[C@H](C)NC(=O)[C@H](CC(=O)O)NC(=O)[C@H](CCCCN)NC(=O)[C@@H]3CSSC[C@@H](C(=O)N[C@H](C(=O)N4CCC[C@H]4C(=O)N[C@@H](CCCCN)C(=O)O)[C@@H](C)O)NC(=O)[C@H](Cc4c[nH]cn4)NC(=O)[C@H](CSSC[C@H](NC(=O)[C@H](CCC(N)=O)NC(=O)[C@@H]4CCCN4C(=O)[C@H](CO)NC(=O)CNC(=O)[C@H](CO)NC1=O)C(=O)N[C@@H](CC(C)C)C(=O)N[C@@H](CCCCN)C(=O)N1CCC[C@H]1C(=O)N3)NC(=O)[C@H](CCCCN)NC(=O)[C@H](CCCNC(=N)N)NC(=O)[C@H](CC(N)=O)NC(=O)[C@H](CCSC)NC2=O)C(C)C [KTX1, Kaliotoxin-1]		> 1000	ShK > KTX1	inconsistent with their published channel blocking potencies	
CC[C@H](C)[C@@H]1NC(=O)[C@@H]2CSSC[C@H](NC(=O)[C@H](CO)NC(=O)[C@@H](N)C(C)C)C(=O)N[C@@H]([C@@H](C)O)C(=O)NCC(=O)N[C@@H](CO)C(=O)N[C@@H](CCCCN)C(=O)N[C@@H](CC(=O)O)C(=O)N[C@@H](CSSC[C@@H](C(=O)N[C@@H](CCCCN)C(=O)N[C@H]3CSSC[C@@H](C(N)=O)NC(=O)CNC(=O)[C@H](Cc4ccc(O)cc4)NC3=O)NC(=O)[C@H](CO)NC(=O)[C@H](CCCCN)NC(=O)[C@H](CC(N)=O)NC1=O)C(=O)N[C@@H](Cc1ccc(O)cc1)C(=O)N[C@@H](C)C(=O)N1CCC[C@H]1C(=O)N[C@H]1CSSC[C@H](NC(=O)CNC(=O)[C@H]([C@@H](C)O)NC(=O)[C@H](CCC(N)=O)NC(=O)[C@H](CCCCN)NC(=O)[C@H](CCCNC(=N)N)NC1=O)C(=O)N1CCC[C@H]1C(=O)N[C@@H](CC(N)=O)C(=O)N[C@@H](C)C(=O)N[C@@H](CCCCN)C(=O)N2 [MTX, Maurotoxin] (HELM PEPTIDE1{V.S.C.T.G.S.K.D.C.Y.A.P.C.R.K.Q.T.G.C.P.N.A.K.C.I.N.K.S.C.K.C.Y.G.C.[am]}$PEPTIDE1,PEPTIDE1,3:R3-24:R3|PEPTIDE1,PEPTIDE1,9:R3-29:R3|PEPTIDE1,PEPTIDE1,13:R3-19:R3|PEPTIDE1,PEPTIDE1,31:R3-34:R3$$$V2.0; N-terminus and C-terminus assumed)		0.8	negligible binding	negligible binding	potent blocker
CC[C@H](C)[C@@H]1NC(=O)[C@@H](NC(=O)[C@H](CO)NC(=O)[C@@H](N)CCCNC(=N)N)CSSC[C@@H](C(=O)O)NC(=O)[C@H]([C@@H](C)O)NC(=O)CNC(=O)[C@@H]2CSSC[C@@H]3NC(=O)[C@H](CCC(N)=O)NC(=O)[C@H](Cc4ccccc4)NC(=O)[C@H](C)NC(=O)[C@H]([C@@H](C)O)NC(=O)[C@H](CSSC[C@H](NC(=O)[C@H](Cc4ccccc4)NC(=O)[C@H](CO)NC(=O)[C@H](CC(C)C)NC(=O)[C@H](CCCNC(=N)N)NC(=O)[C@H](Cc4ccc(O)cc4)NC(=O)[C@H](CCCCN)NC(=O)[C@H](CCSC)NC(=O)[C@H](CO)NC(=O)[C@H](Cc4c[nH]cn4)NC(=O)[C@H](CCCCN)NC3=O)C(=O)N[C@@H](CCCNC(=N)N)C(=O)N[C@@H](CCCCN)C(=O)N[C@@H]([C@@H](C)O)C(=O)N2)NC(=O)[C@H](CCCNC(=N)N)NC(=O)[C@H](CO)NC(=O)[C@H](CCCCN)NC(=O)[C@@H]2CCCN2C(=O)[C@H]([C@@H](C)CC)NC(=O)[C@H]([C@@H](C)O)NC(=O)[C@H](CC(=O)O)NC1=O [ShK, Stichodactyla toxin]		9	ShK > KTX1	inconsistent with their published channel blocking potencies	
